This is an account of results in patent US20140170110A1, “PYRIDIN-2(1H)-ONE DERIVATIVES USEFUL AS MEDICAMENTS FOR THE TREATMENT OF MYELOPROLIFERATIVE DISORDERS, TRANSPLANT REJECTION, IMMUNE-MEDIATED AND INFLAMMATORY DISEASES” (ALMIRALL, S.A., priority 2011, published 2014).

In general, IC50 refers to the concentration needed to halve the response being measured. Lower therefore signals greater potency.

Common to all, as to assay type: biochemical
One test concerns the target T1, human JAK1 (aa 850-1154) (Homo sapiens, UniProt P23458).
T1 construct: human JAK1 (aa 850-1154); GST (N); purchased Carna Biosciences; host or cells: baculovirus expression system
Briefly: In vitro JAK kinase assay (TR-FRET), JAK1. Conditions: catalytic domain GST-fusion; ATP 3 μM; poly (GT)-Biotin 60 nM; 30 minutes at room temperature. The procedure: (§1) Compounds were screened for their ability to inhibit JAK1, JAK2 and JAK3 using the assays as indicated below.
(§2) The enzymatic activity was assayed using as substrate a biotinylated peptide, poly (GT)-Biotin (CisBio). […] The degree of phosphorylation was detected by TR-FRET (time-resolved fluorescence energy transfer).
(§3) The enzymatic reactions took place for 30 minutes at room temperature. […] Incubate for 3 h and read on Victor 2V spectrofluorometer (PerkinElmer) set to read fluorescence resonance energy transfer.

The target of a further test is T2, human JAK2 (aa 826-1132) (Homo sapiens, UniProt O60674).
T2 construct: JAK2 (aa 826-1132); GST (N); purchased Carna Biosciences; host or cells: baculovirus expression system
The test can be described thus: In vitro JAK kinase assay (TR-FRET), JAK2. The settings on record: catalytic domain GST-fusion; ATP 0.2 μM; poly (GT)-Biotin 20 nM; 30 minutes at room temperature. The procedure: as §1, §2, §3
(In general: Time-resolved FRET reads energy transfer from a long-lived donor to a nearby acceptor.)

The next test addresses T3, human JAK3 (aa 795-1124) (Homo sapiens, UniProt P52333).
T3 construct: JAK3 (aa 795-1124); GST (N); purchased Carna Biosciences; host or cells: baculovirus expression system
The test can be described thus: In vitro JAK kinase assay (TR-FRET), JAK3. Conditions: catalytic domain GST-fusion; ATP 0.6 μM; poly (GT)-Biotin 140 nM; 30 minutes at room temperature. On the procedure: as §1, §2, §3

Structures are written as SMILES.

T3 sequence (P52333 795-1124): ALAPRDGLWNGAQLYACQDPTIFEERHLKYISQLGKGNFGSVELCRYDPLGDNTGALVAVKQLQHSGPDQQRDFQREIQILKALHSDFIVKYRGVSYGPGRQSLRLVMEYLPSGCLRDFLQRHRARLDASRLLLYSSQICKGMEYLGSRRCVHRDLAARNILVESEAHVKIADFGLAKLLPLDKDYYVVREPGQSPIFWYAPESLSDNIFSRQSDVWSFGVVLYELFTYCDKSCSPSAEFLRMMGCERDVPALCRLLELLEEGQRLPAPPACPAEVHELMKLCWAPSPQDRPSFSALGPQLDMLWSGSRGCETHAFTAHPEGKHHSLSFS
T1 sequence (P23458 850-1154): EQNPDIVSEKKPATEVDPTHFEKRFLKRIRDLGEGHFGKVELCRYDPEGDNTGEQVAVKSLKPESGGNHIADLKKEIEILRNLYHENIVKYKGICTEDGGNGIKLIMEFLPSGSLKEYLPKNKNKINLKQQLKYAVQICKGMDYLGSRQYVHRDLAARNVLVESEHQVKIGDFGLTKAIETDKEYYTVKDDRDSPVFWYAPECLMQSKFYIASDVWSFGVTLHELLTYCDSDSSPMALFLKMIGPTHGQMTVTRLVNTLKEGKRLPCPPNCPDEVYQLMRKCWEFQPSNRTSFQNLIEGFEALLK
T2 sequence (O60674 826-1132): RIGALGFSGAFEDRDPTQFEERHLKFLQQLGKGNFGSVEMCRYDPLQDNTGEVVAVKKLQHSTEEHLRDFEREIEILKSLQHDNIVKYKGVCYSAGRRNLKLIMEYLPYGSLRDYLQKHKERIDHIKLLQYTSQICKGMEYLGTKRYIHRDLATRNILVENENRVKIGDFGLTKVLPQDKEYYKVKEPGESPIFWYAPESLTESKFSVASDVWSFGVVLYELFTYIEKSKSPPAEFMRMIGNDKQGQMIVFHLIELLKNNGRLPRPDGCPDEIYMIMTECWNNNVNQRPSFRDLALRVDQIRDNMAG

On to `O=c1[nH]cccc1Nc1ncc2[nH]c(=O)n([C@@H]3CCCC[C@@H]3CO)c2n1` (relative stereo) [Example 21, 9-(cis-2-(Hydroxymethyl)cyclohexyl)-2-(2-oxo-1,2-dihydropyridin-3-ylamino)-7H-purin-8(9H)-one], for which the values for the IC50 on human JAK1 (aa 850-1154), against human JAK2 (aa 826-1132) and against human JAK3 (aa 795-1124) were 100 to 1000 nM, < 100 nM and < 100 nM, respectively.
With `N#C[C@@H]1CCCC[C@H]1n1c(=O)[nH]c2cnc(Nc3ccc[nH]c3=O)nc21` (relative stereo) [Example 23, trans-2-(8-Oxo-2-(2-oxo-1,2-dihydropyridin-3-ylamino)-7H-purin-9(8H)-yl)cyclo hexanecarbonitrile], the values for the IC50 against human JAK1 (aa 850-1154), against human JAK2 (aa 826-1132) and against human JAK3 (aa 795-1124) were 100 to 1000 nM, < 100 nM and < 100 nM, respectively.
`O=c1[nH]cccc1Nc1ncc2[nH]c(=O)n(C3CCOCC3)c2n1` [Example 1, 2-(2-Oxo-1,2-dihydropyridin-3-ylamino)-9-(tetrahydro-2H-pyran-4-yl)-7H-purin-8(9H)-one]: the IC50 on human JAK1 (aa 850-1154) is 100 to 1000 nM; at human JAK2 (aa 826-1132), < 100 nM; on human JAK3 (aa 795-1124) it was < 100 nM.
On to `O=c1[nH]cc(C(F)F)cc1Nc1ncc2[nH]c(=O)n(C3CCOCC3)c2n1` [Example 5, 2-(5-(Difluoromethyl)-2-oxo-1,2-dihydropyridin-3-ylamino)-9-(tetrahydro-2H-pyran-4-yl)-7H-purin-8(9H)-one], for which the IC50 against human JAK1 (aa 850-1154), against human JAK2 (aa 826-1132) and against human JAK3 (aa 795-1124) was < 100 nM in each case.
Regarding `O=c1[nH]cccc1Nc1ncc2[nH]c(=O)n(C3CCSCC3)c2n1` [Example 12, 2-(2-Oxo-1,2-dihydropyridin-3-ylamino)-9-(tetrahydro-2H-thiopyran-4-yl)-7H-purin-8(9H)-one], the results for the IC50 at human JAK1 (aa 850-1154), at human JAK2 (aa 826-1132) and against human JAK3 (aa 795-1124) were 100 to 1000 nM, < 100 nM and < 100 nM, respectively.
Regarding `O=c1[nH]cccc1Nc1ncc2[nH]c(=O)n(C3CCCCC3)c2n1` [Example 14, 9-Cyclohexyl-2-(2-oxo-1,2-dihydropyridin-3-ylamino)-7H-purin-8(9H)-one], the IC50 on human JAK1 (aa 850-1154), at human JAK2 (aa 826-1132) and at human JAK3 (aa 795-1124) was < 100 nM each time.
Consider `O=c1[nH]cccc1Nc1ncc2[nH]c(=O)n([C@H]3CC[C@@H](n4cncn4)CC3)c2n1` [Example 22, 9-((1s,4s)-4-(1H-1,2,4-Triazol-1-yl)cyclohexyl)-2-(2-oxo-1,2-dihydropyridin-3-ylamino)-7H-purin-8(9H)-one], for which the half-inhibitory concentration (IC50) against human JAK1 (aa 850-1154) is 100 to 1000 nM; against human JAK2 (aa 826-1132), < 100 nM; on human JAK3 (aa 795-1124), < 100 nM.
For the molecule `O=c1[nH]cccc1Nc1ncc2[nH]c(=O)n([C@@H]3CC=Cc4ccccc43)c2n1` [Example 31, (R)-9-(1,2-Dihydronaphthalen-1-yl)-2-(2-oxo-1,2-dihydropyridin-3-ylamino)-7H-purin-8(9H)-one], the IC50 is 100 to 1000 nM at human JAK1 (aa 850-1154), < 100 nM against human JAK2 (aa 826-1132) and < 100 nM at human JAK3 (aa 795-1124).
For the molecule `CS(=O)(=O)C[C@H]1CC[C@H](n2c(=O)[nH]c3cnc(Nc4ccc[nH]c4=O)nc32)CC1` [Example 39, 9-((1r,4r)-4-(Methylsulfonylmethyl)cyclohexyl)-2-(2-oxo-1,2-dihydropyridin-3-ylamino)-7H-purin-8(9H)-one], the results for the IC50 on human JAK1 (aa 850-1154), against human JAK2 (aa 826-1132) and at human JAK3 (aa 795-1124) were 100 to 1000 nM, < 100 nM and 100 to 1000 nM, respectively.
Take `O=c1[nH]cccc1Nc1ncc2c(n1)n(C1CCOCC1)c(=O)n2CCO` [Example 46, 7-(2-Hydroxyethyl)-2-(2-oxo-1,2-dihydropyridin-3-ylamino)-9-(tetrahydro-2H-pyran-4-yl)-7H-purin-8(9H)-one]: the IC50 against human JAK1 (aa 850-1154) is 100 to 1000 nM; against human JAK2 (aa 826-1132) it was < 100 nM; at human JAK3 (aa 795-1124), < 100 nM.
For `O=c1[nH]cccc1Nc1nc2c(cc1F)[nH]c(=O)n2C1CCOCC1` [Example 49, 6-Fluoro-5-(2-oxo-1,2-dihydropyridin-3-ylamino)-3-(tetrahydro-2H-pyran-4-yl)-1H-imidazo[4,5-b]pyridin-2(3H)-one], the IC50 is 100 to 1000 nM against human JAK1 (aa 850-1154), < 100 nM against human JAK2 (aa 826-1132) and < 100 nM on human JAK3 (aa 795-1124).
As for `O=c1[nH]cccc1Nc1nc(N2CCOCC2)c2[nH]c(=O)n(C3CCOCC3)c2n1` [Example 50, 6-Morpholino-2-(2-oxo-1,2-dihydropyridin-3-ylamino)-9-(tetrahydro-2H-pyran-4-yl)-7H-purin-8(9H)-one], the IC50 against human JAK1 (aa 850-1154) is > 1000 nM; on human JAK2 (aa 826-1132) it was < 100 nM; against human JAK3 (aa 795-1124), < 100 nM.
`O=c1[nH]cncc1Nc1ncc2[nH]c(=O)n(C3CCOCC3)c2n1` [Example 51, 2-(6-Oxo-1,6-dihydropyrimidin-5-ylamino)-9-(tetrahydro-2H-pyran-4-yl)-7H-purin-8(9H)-one]: the IC50 against human JAK1 (aa 850-1154), against human JAK2 (aa 826-1132) and on human JAK3 (aa 795-1124) was 100 to 1000 nM throughout.
In the case of `C[C@H](c1ncc(F)cn1)n1c(=O)[nH]c2cnc(Nc3cnc[nH]c3=O)nc21` [Example 52, (R)-9-(1-(5-Fluoropyrimidin-2-yl)ethyl)-2-(6-oxo-1,6-dihydropyrimidin-5-ylamino)-7H-purin-8(9H)-one], the IC50 is > 1000 nM against human JAK1 (aa 850-1154), < 100 nM on human JAK2 (aa 826-1132) and 100 to 1000 nM against human JAK3 (aa 795-1124).
Take `O=c1[nH]nc(Cl)cc1Nc1ncc2[nH]c(=O)n(C3CCOCC3)c2n1` [Example 54, 2-(6-Chloro-3-oxo-2,3-dihydropyridazin-4-ylamino)-9-(tetrahydro-2H-pyran-4-yl)-7H-purin-8(9H)-one]: the concentration for half-maximal inhibition (IC50) against human JAK1 (aa 850-1154) is 100 to 1000 nM; at human JAK2 (aa 826-1132), 100 to 1000 nM; at human JAK3 (aa 795-1124), < 100 nM.
